The data set can be described thus: Rat pharmacokinetics after intravenous and oral administration. Type of data set: in vivo. Conditions: 10 mg/kg, rats. The method, then:
Figure 3 Pharmacokinetic analysis and tissue distribution of PCiv. (A) Pharmacokinetic analysis of blood PCiv levels at each indicated time point following intravenous or oral administration of PCiv (10 mg/kg) determined by ultra-performance liquid chromatography (n = 4 rats for oral and 5 rats for intravenous administration). (B) Quantification of PCiv levels in each indicated tissue (ng/g tissue weight) determined by ultra-performance liquid chromatography (n = 3 rats, tissues collected 15 min after intravenous PCiv administration (10 mg/kg). PCiv was dissolved in a vehicle (DMSO:PEG400:saline ratio of 5:70:25) for solubilization. The quantified data are expressed as means ± standard deviations.
In vivo rat pharmacokinetic studies were performed for intravenous and oral administration of PCiv as previously reported. Sprague-Dawley rats (8 weeks old, 260–280 g) were purchased from Orient Bio Inc. (Seongnam, Korea). Rats were maintained with free access to food and water under a 12:12 h light/dark cycle for 1 week. For pharmacokinetic studies, under anesthetic conditions (20 mg/kg tiletamine/zolazepam [Zoletil; Vibrac Laboratories, Carros, France] administered intramuscularly), the femoral vein and artery were surgically cannulated using polyethylene tubing (PE50; Clay Adams, Parsippany, NJ, USA) in fasted rats. Then, PCiv was administered intravenously and orally at a dose of 10 mg/kg (n = 4–5). The drug was dissolved in a vehicle (DMSO:PEG400:saline at a ratio of 5:70:25). Blood samples (approximately 100 μL) were collected at predetermined time points (0, 1, 5 (intravenous administration only), 15, 30, 60, 120, 180, 240, 360, and 480 min) after drug administration. To prevent blood clots and fluid loss, the cannula to the femoral artery was flushed with 20 IU/mL heparinized saline, and the same volume of saline was pushed to the cannula for the femoral vein. The plasma fraction was immediately obtained after centrifugation at 14,000 rpm for 15 min at 4 °C and then stored at −20 °C prior to analysis using the ultra-high-performance liquid chromatography (UHPLC)-diode array detector (DAD) method. Similarly, a tissue distribution study was performed 15 min after the intravenous bolus injection (10 mg/kg), as previously described. Four major tissues, including tissues from the brain, heart, kidneys, and liver, were collected. Based on the wet weights of the tissue samples, a two-fold volume of PBS was added and homogenized. The tissue homogenates were stored at −20 °C before UHPLC-DAD analysis. The UHPLC-DAD system consisted of an Agilent Technologies 1290 Infinity II equipped with a DAD (G7117A), an autosampler (G71678B), a binary pump (G7104A), and a multicolumn thermostat (G7116B). The PCiv level was determined using a CapcellpakTM C18 5 μm column (250 × 1.5 mm, Shiseido Fine Chemical Co., Tokyo, Japan), as previously described. The mobile phase was composed of 0.1% phosphoric acid and acetonitrile and eluted in the gradient mode at a flow rate of 0.2 mL/min. A DAD detector was applied at 321 nm, with an injection volume of 10 μL. The calibration range was 20–10,000 ng/mL with good linearity (R = 0.99783 with 1/× weighting). The tissue concentration levels were calculated as the PCiv amount (ng) per gram of organ weight.

From article PMC9369442, “Synthetic Peucedanocoumarin IV Prevents α-Synuclein Neurotoxicity in an Animal Model of Parkinson’s Disease” (International Journal of Molecular Sciences, 2022) come the findings set out here.

SMILES strings stand for the structures. Read-outs that look alike come from different tables or passages of the source.

Broadly, the half-life is how long it takes for the measured level to halve. The term bioavailability denotes the share of a dose that reaches the circulation, judged against a reference dose that is usually intravenous. As for `C/C=C(\C)C(=O)O[C@H]1[C@H](OC(C)=O)c2c(ccc3ccc(=O)oc23)OC1(C)C` (relative stereo) [PCiv, trans-4′-acetyl-3′-tigloylkhellactone], for the setting “Sprague-Dawley, rat, plasma, iv, intravenous, read-out: mean half-life”, the half-life amounted to 1.43 h. The half-life (Sprague-Dawley, rat, plasma, po, oral administration, read-out: half-life) is about 1.62 h. Where the note is “Sprague-Dawley, rat, plasma, po, oral, read-out: absolute bioavailability”, the bioavailability was 9.96%. For the same compound, the Vd (Sprague-Dawley, rat, plasma, intravenous, read-out: mean steady-state volume of distribution) was 6.62 L/kg. Further, the clearance (Sprague-Dawley, rat, plasma, intravenous, read-out: mean systemic total clearance) was 136 mL/min/kg. For the same compound, under “oral”, the absolute bioavailability is about 10% and the maximum concentration result was “low”.
